Results published in publication PMC8539250, “Synthesis and Anti-HIV Activity of a Novel Series of Isoquinoline-Based CXCR4 Antagonists” (Molecules, 2021).
Where two headings read alike, the source gives them in different places.

Tests used:
HIV-1 NL4.3 = test: Anti-HIV-1 assay in MT-4 cells (tetrazolium-based colorimetric, cytopathic effect); assay type: cell-based; conditions: Human immunodeficiency virus 1, MT4
Description: (§1) First, the ability of the compounds to compete with fluorescently labeled CXCL12 (CXCL12^AF647) for binding at CXCR4 was determined. Second, since binding of CXCL12 to CXCR4 results into a transient increase of cytosolic calcium levels, the inhibition of this CXCL12-induced calcium mobilization by the various compounds was also investigated. […] In parallel, the cytotoxicity of the compounds for uninfected MT-4 cells was assessed. […] The CD4 cell line MT-4 was obtained from the American Type Culture Collection (Rockville, MD, USA) and cultured in RPMI 1640 medium (Gibco BRL, Gaithersburg, MD, USA) with 10% heat-inactivated fetal calf serum (Biowhittaker Europe, Verviers, Belgium) and 2 mmol/L L-glutamine (Gibco BRL). […] The anti-HIV-1 and anti-HIV-2 activity in MT-4 cells was determined using a tetrazolium-based colorimetric assay. […] Threefold dilutions of the drugs in 100 μL medium were added to duplicate wells of 96-well flat bottom plates (Iwaki Glass). […] The cytopathic effect induced by the virus was checked regularly microscopically. […] Each assay was performed at least three times. […] Absorbance was recorded using the VersaMax ELISA™ microplate reader (Molecular Devices) and analyzed with the Softmax Pro® software (Molecular Devices, Version 4.0, www.moleculardevices.com, accessed on 10 January 2015). Using mock-infected cells, the cytotoxic concentration 50 (CC50) of each compound was investigated.

[1] = Cytotoxicity in mock-infected MT-4 cells; assay type: cell-based; conditions: human, mock-infected (uninfected) MT-4 cells, concentration reducing viability of mock-infected MT4 cells by 50%; mean ± SD
Description: (§2) First, the ability of the compounds to compete with fluorescently labeled CXCL12 (CXCL12^AF647) for binding at CXCR4 was determined. Second, since binding of CXCL12 to CXCR4 results into a transient increase of cytosolic calcium levels, the inhibition of this CXCL12-induced calcium mobilization by the various compounds was also investigated. […] In parallel, the cytotoxicity of the compounds for uninfected MT-4 cells was assessed. […] The CD4 cell line MT-4 was obtained from the American Type Culture Collection (Rockville, MD, USA) and cultured in RPMI 1640 medium (Gibco BRL, Gaithersburg, MD, USA) with 10% heat-inactivated fetal calf serum (Biowhittaker Europe, Verviers, Belgium) and 2 mmol/L L-glutamine (Gibco BRL). The anti-HIV-1 and anti-HIV-2 activity in MT-4 cells was determined using a tetrazolium-based colorimetric assay. This assay been described in detail before. Threefold dilutions of the drugs in 100 μL medium were added to duplicate wells of 96-well flat bottom plates (Iwaki Glass). […] The cytopathic effect induced by the virus was checked regularly microscopically. […] The absorbance was then recorded at 490 nm with a 96-well plate reader and compared with four cell control replicates (cells without virus and drugs) and four virus control wells (cells with virus but without drug). Each assay was performed at least three times. […] Absorbance was recorded using the VersaMax ELISA™ microplate reader (Molecular Devices) and analyzed with the Softmax Pro® software (Molecular Devices, Version 4.0, www.moleculardevices.com, accessed on 10 January 2015). Using mock-infected cells, the cytotoxic concentration 50 (CC50) of each compound was investigated.

CXCR4 [2] = target: T1, CXCR4 (Homo sapiens, UniProt P61073); test: CXCL12-induced calcium mobilization assay in U87.CD4.CXCR4 cells (FLIPR); assay type: cell-based; conditions: concentration needed to inhibit CXCL12-induced calcium signaling by 50%, 6.25 nM CXCL12, mean ± SD
T1 sequence (P61073 whole entry): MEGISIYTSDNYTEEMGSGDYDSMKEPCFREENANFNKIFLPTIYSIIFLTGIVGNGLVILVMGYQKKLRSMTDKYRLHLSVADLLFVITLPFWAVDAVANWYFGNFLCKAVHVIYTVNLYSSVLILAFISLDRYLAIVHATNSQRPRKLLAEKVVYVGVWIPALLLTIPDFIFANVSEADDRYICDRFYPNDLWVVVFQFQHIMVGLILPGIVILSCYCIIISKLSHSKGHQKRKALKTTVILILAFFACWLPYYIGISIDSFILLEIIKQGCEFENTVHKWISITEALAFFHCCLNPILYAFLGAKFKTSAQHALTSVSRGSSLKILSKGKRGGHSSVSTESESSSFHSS
Description: (§3) First, the ability of the compounds to compete with fluorescently labeled CXCL12 (CXCL12^AF647) for binding at CXCR4 was determined. […] Finally, given the role of CXCR4 as a major coreceptor for HIV entry, the antiviral activity of the compounds against the X4-tropic wild type HIV-1 NL4–3 strain and the HIV-2 ROD strain was determined in MT-4 cells. In parallel, the cytotoxicity of the compounds for uninfected MT-4 cells was assessed.
The calcium mobilization assay has been described in detail previously. U87.CD4.CXCR4 cells (2 × 10^4 cells per well in DMEM/10% FBS/0.01 M HEPES) were seeded in gelatin-coated (Sigma-Aldrich; 0.1% gelatin in DPBS) black-walled 96-well plates and incubated overnight at 37 °C and 5% CO2. The next day, cells were loaded with the fluorescent calcium indicator Fluo-2 acetoxymethyl (AM) ester (4 μM; Abcam) and incubated at room temperature in the dark for 45 min. Then, cells were incubated with various concentrations of the compounds for 10 min prior to the addition of 6.25 nM CXCL12 (in assay buffer). Fluctuations in intracellular calcium levels were measured in real time by the FLIPR Tetra® (Molecular Devices, Sunnyvale, CA, USA) in all 96 wells simultaneously. The response over baseline (after CXCL12 addition) was calculated with the ScreenWorks 4.0® software (Molecular Devices, Version 4.0, www.moleculardevices.com, accessed on 10 January 2015) by dividing the obtained relative light units (RLUs) through the base line measured just before CXCL12 addition. From this the IC50 value for each compound was determined taking into account the negative (i.e., untreated cells without CXCL12 stimulation) and positive (i.e., untreated cells with CXCL12 addition) control samples.

CXCR4 [3] = target: T1, CXCR4; test: CXCL12AF647 competition binding assay with Jurkat cells (flow cytometry); design: endogenous in cells; host or cells: Jurkat cells
Description: as §3
The CXCL12^AF647 binding assay with Jurkat cells has been described previously. Briefly, Jurkat cells were resuspended in assay buffer [Hank’s Balanced Salt Solution (HBSS, Thermo Fisher Scientific), 20 mM HEPES buffer, 0.2% bovine serum albumin (Sigma-Aldrich), pH 7.4] at 3 × 10^5 cells per sample and then treated with various concentrations of the compound at room temperature for 15 min. Afterwards, the cells were incubated with 2.9 nM CXCL12^AF647 (in assay buffer) at room temperature for 30 min in the dark. Cells were fixed in 1% paraformaldehyde in DPBS and specific CXCL12^AF647 binding [i.e., mean fluorescence intensity (MFI)] was quantified by flow cytometry (FACSCanto^TM II; Becton Dickinson). Data were analyzed with FlowJo® Software. The 50% inhibitory concentration (IC50) was calculated for each compound relative to the negative (i.e., autofluorescence of untreated and unlabeled cells) and positive (i.e., untreated cells exposed to CXCL12^AF647 only) control.

HIV-2 ROD = test: Anti-HIV-2 assay in MT-4 cells (tetrazolium-based colorimetric, cytopathic effect); assay type: cell-based; conditions: Human immunodeficiency virus 2, MT4
Description: as §1

MT-4 cells = test: Cytotoxicity in mock-infected MT-4 cells; assay type: cell-based
Description: as §2

[4] = 50% protection of MT-4 cells against HIV-induced cytopathicity, mean ± SD, read-out: HIV-1 NL4.3 EC50
[5] = concentration needed to inhibit CXCL12 receptor binding by 50%, Jurkat cells, 2.9 nM CXCL12AF647, mean ± SD
[6] = 50% protection of MT-4 cells against HIV-induced cytopathicity, mean ± SD, read-out: HIV-2 ROD EC50
[7] = MT-4 cells, read-out: EC50 against HIV-1
[8] = MT-4 cells, read-out: EC50 against HIV-2

Row | SMILES | EC50 (HIV-1 NL4.3; [4]) [nM] | IC50 (CXCR4 [2]) [nM] | IC50 (CXCR4 [3]; [5]) [nM] | EC50 (HIV-2 ROD; [6]) [nM] | EC50 (HIV-1 NL4.3; [7]) [nM] | EC50 (HIV-2 ROD; [8]) [nM] | IC50 (CXCR4 [3]; competition with CXCL12 for binding to CXCR4) [nM] | CC50 at 4 d [1] [nM] | cytotoxicity for the MT4 cell line (in words) (MT-4 cells) | CC50 (MT-4 cells; concentration reducing viability of mock-infected MT4 cells by 50%, mean ± SD) [nM]
1 | COc1cc2ccnc(CN(CCCCN)C3CCCc4cccnc43)c2cc1OC (stereo not drawn) [Compound 19a, N1-((6,7-Dimethoxyisoquinolin-1-yl)methyl)-N1-(5,6,7,8-tetrahydroquinolin-8-yl)butane-1,4-diamine] | 74 ± 27 | 25 ± 8.1 | 7.2 ± 3.2 | 42 ± 13 | – | – | – | > 100000 | – | –
2 | COc1ccc2c(CN(CCCCN)C3CCCc4cccnc43)nccc2c1 (stereo not drawn) [Compound 19b, N1-((6-Methoxyisoquinolin-1-yl)methyl)-N1-(5,6,7,8-tetrahydroquinolin-8-yl)butane-1,4-diamine] | 61 ± 31 | 28 ± 4.9 | 2.5 ± 1.2 | 77 ± 19 | – | – | – | 11100 ± 540 | – | –
3 | NCCCCN(Cc1nccc2cc(F)ccc12)C1CCCc2cccnc21 (stereo not drawn) [Compound 19c, N1-((6-Fluoroisoquinolin-1-yl)methyl)-N1-(5,6,7,8-tetrahydroquinolin-8-yl)butane-1,4-diamine] | 16 ± 12 | 33 ± 21 | 8.9 ± 5.6 | 11 ± 5.6 | – | – | – | 18100 ± 6820 | – | –
4 | NCCCCN(Cc1nccc2cc(Br)ccc12)C1CCCc2cccnc21 (stereo not drawn) [Compound 19d, N1-((6-Bromoisoquinolin-1-yl)methyl)-N1-(5,6,7,8-tetrahydroquinolin-8-yl)butane-1,4-diamine] | 550 ± 360 | 440 ± 210 | 26 ± 1.7 | 550 ± 360 | – | – | – | 43600 ± 1770 | – | –
5 | NCCCCN(Cc1nccc2ccccc12)C1CCCc2cccnc21 (stereo not drawn) [Compound 19e, N1-(Isoquinolin-1-ylmethyl)-N1-(5,6,7,8-tetrahydroquinolin-8-yl)butane-1,4-diamine] | 84 ± 15 | 130 ± 41 | 9.2 ± 4.2 | 26 ± 30 | < 100 | < 100 | – | 26700 ± 18600 | lack cytotoxicity | –
6 | NCCCCN(Cc1ccccn1)C1CCCc2cccnc21 (stereo not drawn) [Compound 20, N1-(Pyridin-2-ylmethyl)-N1-(5,6,7,8-tetrahydroquinolin-8-yl)butane-1,4-diamine] | 58 ± 71 | – | – | 58 ± 22 | < 100 | < 100 | – | 55400 ± 720 | lack cytotoxicity | –

Continued, in another order:

Row | EC50 (HIV-1 NL4.3; [4]) [nM] | IC50 (CXCR4 [2]) [nM] | IC50 (CXCR4 [3]; [5]) [nM] | EC50 (HIV-2 ROD; [6]) [nM] | EC50 (HIV-1 NL4.3; [7]) [nM] | EC50 (HIV-2 ROD; [8]) [nM] | IC50 (CXCR4 [3]; competition with CXCL12 for binding to CXCR4) [nM] | SMILES | CC50 at 4 d [1] [nM] | cytotoxicity for the MT4 cell line (in words) (MT-4 cells) | CC50 (MT-4 cells; concentration reducing viability of mock-infected MT4 cells by 50%, mean ± SD) [nM]
7 | 23 ± 8 | 13 ± 5.3 | 3.2 ± 0.99 | 24 ± 1.8 | < 100 | < 100 | – | COc1cc2ccnc(CN(CCCCN)Cc3ncccc3C)c2cc1OC [Compound 24a, N1-((6,7-dimethoxyisoquinolin-1-yl)methyl)-N1-((3-methylpyridin-2-yl)methyl)butane-1,4-diamine] | > 100000 | lack cytotoxicity | –
8 | > 9270 | 3850 ± 190 | 890 ± 460 | > 9270 | – | – | – | COc1ccc2c(CN(CCCCN)Cc3ncccc3C)nccc2c1 [Compound 24b, N1-((6-Methoxyisoquinolin-1-yl)methyl)-N1-((3-methylpyridin-2-yl)methyl)butane-1,4-diamine] | 9270 ± 460 | – | –
9 | 6.2 ± 5.9 | 6.1 ± 1 | 0.64 ± 0.17 | 3.8 ± 0.29 | < 100 | < 100 | – | Cc1cccnc1CN(CCCCN)Cc1nccc2cc(F)ccc12 [Compound 24c, N1-((6-Fluoroisoquinolin-1-yl)methyl)-N1-((3-methylpyridin-2-yl)methyl)butane-1,4-diamine] | 31000 | lack cytotoxicity | 30800 ± 880
10 | 2540 ± 910 | 690 ± 230 | 39 ± 24 | 2540 ± 910 | – | – | – | Cc1cccnc1CN(CCCCN)Cc1nccc2cc(Br)ccc12 [Compound 24d, N1-((6-Bromoisoquinolin-1-yl)methyl)-N1-((3-methylpyridin-2-yl)methyl)butane-1,4-diamine] | 29500 ± 9760 | – | –
11 | 770 ± 290 | 930 ± 720 | 26 ± 14 | 2290 ± 350 | – | – | – | Cc1cccnc1CN(CCCCN)Cc1nccc2ccccc12 [Compound 24e, N1-(Isoquinolin-1-ylmethyl)-N1-((3-methylpyridin-2-yl)methyl)butane-1,4-diamine] | 40900 ± 6530 | – | –
12 | 230 ± 210 | 180 ± 23 | 6.2 ± 0.57 | 170 ± 160 | – | – | 0.6 | Cc1cccnc1CN(CCCCN)Cc1ccccn1 [Compound 25, N1-((3-Methylpyridin-2-yl)methyl)-N1-(pyridin-2-ylmethyl)butane-1,4-diamine] | 79800 ± 13100 | – | –
13 | 4.9 ± 3.2 | – | – | 8.1 ± 4.2 | – | – | – | c1cc(CN2CCCNCCNCCCNCC2)ccc1CN1CCCNCCNCCCNCC1 [Plerixafor, reference compound] | 6290 ± 720 | – | –
